Key:
rats [1] = conditions: rat model of tonic, persistent pain; cited from earlier work
human 5-HT6 receptor = target: T1, human 5-HT6 receptor (Homo sapiens, UniProt P50406); experiment: Human 5-HT6 Receptor Binding Assay ([3H]LSD displacement, scintillation beads); conditions: membranes of CHO-K1 cells with recombinant human 5-HT6, 4 nM [3H]LSD; Table 1, class symbols; read-out: h5-HT6 (Ki)
T1 construct: host or cells: CHO-K1 cells, stably transfected; membranes prepared in house

rats [2] = conditions: compared to an untreated control group; cited from earlier work

T1 sequence (P50406 whole entry): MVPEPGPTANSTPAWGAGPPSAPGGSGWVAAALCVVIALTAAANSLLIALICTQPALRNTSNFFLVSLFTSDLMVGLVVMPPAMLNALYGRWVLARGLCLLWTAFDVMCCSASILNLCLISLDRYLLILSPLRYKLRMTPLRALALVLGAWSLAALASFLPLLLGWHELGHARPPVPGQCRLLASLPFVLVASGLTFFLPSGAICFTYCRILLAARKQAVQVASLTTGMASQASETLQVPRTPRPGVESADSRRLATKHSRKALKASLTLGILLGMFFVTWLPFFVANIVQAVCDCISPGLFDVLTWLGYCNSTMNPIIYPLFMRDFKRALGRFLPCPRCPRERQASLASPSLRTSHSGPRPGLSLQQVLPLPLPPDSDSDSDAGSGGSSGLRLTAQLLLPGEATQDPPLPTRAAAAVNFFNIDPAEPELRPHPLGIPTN

Structure (SMILES)	antinociceptive effect (rats [1])	Ki (human 5-HT6 receptor)	melting point	non-REM (NREM) sleep (rats [2])
COc1ccc(NS(=O)(=O)c2sc3ccc(Cl)cc3c2C)cc1N1CCNCC1 [SB-271046]	short-lived, antinociceptive effect			
O=S(=O)(c1cccc(F)c1)c1ccc2c3c(oc2c1)C1(COC1)NCC3 [Example 48, 7-[(3-fluorophenyl)sulfonyl]-3,4-dihydro-2H-spiro[1-benzofuro[2,3-c]pyridine-1,3′-oxetane]]		< 500 nM	153 to 155 °C	
C[C@@H]1CCCN1CCCOc1cc(F)cc(S(=O)(=O)c2ccc3c(c2)OC2CNCCC32)c1 (single isomer, unassigned) [Example 626]		> 1000 nM	208 to 212 °C	
CC12CCNCC1Oc1ccc(S(=O)(=O)c3cccc(Cl)c3Cl)cc12 (centres unmarked) [Example 106]		< 500 nM	244 to 246 °C	
CC1(C)CNCc2oc3cc(S(=O)(=O)c4cccc(F)c4)ccc3c21 [Example 86]		< 500 nM	291 to 293 °C	
Cc1cncc(Oc2cccc(S(=O)(=O)c3ccc4c(c3)OC3CNCCC43)c2)n1 (centres unmarked) [Example 63]		< 500 nM	128 to 130 °C	
CC12CCNCC1Oc1ccc(S(=O)(=O)c3ccccn3)cc12 (centres unmarked) [Example 91]		> 1000 nM	255 to 257 °C	
CC(=O)NCC1(C)NCCc2c1oc1cc(S(=O)(=O)c3cccc(F)c3)ccc21 (centres unmarked) [Example 492, N-({7-[(3-fluorophenyl)sulfonyl]-1-methyl-1,2,3,4-tetrahydro[1]benzofuro[2,3-c]pyridin-1-yl}methyl)acetamide]		< 500 nM	140 to 155 °C (dec.)	
Cc1c(Cl)cccc1S(=O)(=O)c1ccc2c3c(oc2c1)CNCC3 [Example 82]		< 500 nM	258 to 259 °C	
COc1cc2c(cc1S(=O)(=O)c1cccc(F)c1)C1CCNCC1O2 (centres unmarked) [Example 89]		< 500 nM	197 to 204 °C	
Cn1ccc2cccc(S(=O)(=O)c3ccc4c5c(oc4c3)CNCC5)c21 [Example 84]		< 500 nM	224 to 225 °C	
CCNC(=O)Oc1cccc(S(=O)(=O)c2ccc3c(c2)OC2CNCCC32)c1 (centres unmarked) [Example 628, 3-[1,2,3,4,4a,9a-Hexahydro[1]benzofuro[2,3-c]pyridin-7-ylsulfonyl]phenyl ethylcarbamate]		< 500 nM	217 to 219 °C	
CN1CCN(c2cccc3c(S(=O)(=O)c4ccccc4)c[nH]c23)CC1 [RO 4368554]				increase in non-REM (non-rapid eye movement or NREM) sleep
CC12CCNCC1Oc1ccc(S(=O)(=O)c3ccc(F)cc3)cc12 (centres unmarked) [Example 92]		> 1000 nM	163 to 165 °C	

— patent publication US8765779B2, “Tricyclic derivatives and their pharmaceutical use and compositions” (Cephalon, Inc., priority 2009, dated 2014)
